Measured values taken from patent US20260115170A1, “Method of Ameliorating a Symptom or a Disease in a Human Caused by Fungus” (ISHIHARA SANGYO KAISHA, LTD., priority 2020, published 2026).
Values after ≈ are worked out from the molar mass of the structure shown.

Key:
Type in all cases: cell-based
[1] = system: Candida glabrata (JCM3761 Strain); assay: Test Example 2 minimum inhibitory concentration; conditions: Nakaseomyces glabratus, Sabouraud medium, 30° C. for 72 hours
Method: (§1) Test Microbial Strains: Candida albicans (NBRC1594 Strain), Candida glabrata (JCM3761 Strain), Cryptococcus neoformans (JCM3685 Strain), Aspergillus fumigatus (JCM10253), Aspergillus niger (ATCC6725), Trichophyton rubrum (ATCCMYA4607), Trichophyton interdegitale (ATCC9533), Microsporum canis (NBRC7863), and Arthroderma vanbreuseghemii (JCM1891)
(§2) The Candida microbes and the Cryptococcus microbe were cultured at 30° C. for 72 hours and the other microbes were cultured at 25° C. for 120 hours in Sabouraud media, and then suspended in 5 mL of PBS (containing 8 g of sodium chloride, 2.9 g of disodium hydrogen phosphate, 0.2 g of potassium chloride, and 0.2 g of potassium dihydrogen phosphate in 1000 mL) containing Tween80 (polyoxyethylene sorbitan monooleate: Kanto Chemical Co., Inc.) (1% (V/V))), and the resulting suspension was filtered through a cell strainer (φ40 μm). Spores were recovered from the filtrate by centrifugation (3500 rpm, 5 minutes) and washed twice with physiological saline, and then a spore suspension was prepared (1×10^6 spores/mL). 50 μL of the spore suspension was inoculated into a Sabouraud medium to which compound No. 6 dissolved in DMSO was added to have a predetermined concentration. The Candida microbes and the Cryptococcus microbe were cultured at 30° C. for 72 hours and the other microbes were cultured at 25° C. for 120 hours, then the presence or absence of colony growth was investigated, and the minimum inhibitory concentration was determined.

[2] = system: Microsporum canis (NBRC7863); assay: Test Example 2 minimum inhibitory concentration; conditions: Sabouraud medium, 25° C. for 120 hours
Method: as §1, §2

[3] = system: Trichophyton interdegitale (ATCC9533); assay: Test Example 2 minimum inhibitory concentration; conditions: Sabouraud medium, 25° C. for 120 hours
Method: as §1, §2

[4] = system: Cryptococcus neoformans (JCM3685 Strain); assay: Test Example 2 minimum inhibitory concentration; conditions: Sabouraud medium, 30° C. for 72 hours
Method: as §1, §2

[5] = system: Aspergillus niger (ATCC6725); assay: Test Example 2 minimum inhibitory concentration; conditions: Sabouraud medium, 25° C. for 120 hours
Method: as §1, §2

[6] = system: Trichophyton rubrum (ATCCMYA4607); assay: Test Example 2 minimum inhibitory concentration; conditions: Sabouraud medium, 25° C. for 120 hours
Method: as §1, §2

[7] = system: Candida albicans (NBRC1594 Strain); assay: Test Example 2 minimum inhibitory concentration; conditions: Sabouraud medium, 30° C. for 72 hours
Method: as §1, §2

[8] = system: Arthroderma vanbreuseghemii (JCM1891); assay: Test Example 2 minimum inhibitory concentration; conditions: Trichophyton mentagrophytes, Sabouraud medium, 25° C. for 120 hours
Method: as §1, §2

[9] = system: Aspergillus fumigatus (JCM10253); assay: Test Example 2 minimum inhibitory concentration; conditions: Sabouraud medium, 25° C. for 120 hours
Method: as §1, §2

[10] = system: Microsporum canis (IFM63627); assay: Test Example 4 antifungal activity test, minimum inhibitory concentration (MIC100); conditions: Sabouraud medium, 32° C. for 72 hours
Method: (§3) Test Microbial Strains: Trichophyton rubrum (ATCCMYA4607), and Microsporum canis (IFM63627)
(§4) The antifungal activity was studied by partially modifying the method of Test Example 2. Trichophyton rubrum was cultured in a Sabouraud medium and Microsporum canis was cultured in a 1/10 Sabouraud medium, at 32° C. for 168 hours to form spores. For Trichophyton rubrum, hyphae were peeled off from the surface of the medium and recovered in a tube, physiological saline (Otsuka Normal Saline; containing 9 g of sodium chloride in 1000 mL) was added, these were wholly admixed using a disposable loop (type 1 (1 μL)) for dispersion, and a spore suspension containing the hyphae was recovered. […] The spore suspensions containing the hyphae of Trichophyton rubrum and Microsporum canis, respectively, were filtered through a cell strainer ((40 μm). The spores were recovered from the filtrate by centrifugation (3500 rpm, 5 minutes) and washed twice with physiological saline, and then a spore suspension was prepared (1×10^7 spores/mL). 10 μL of the spore suspension was inoculated into a Sabouraud medium to which the test compound dissolved in DMSO was added to have a predetermined concentration. Trichophyton rubrum, Microsporum canis was cultured at 32° C. for 72 hours, then the presence or absence of colony growth was investigated, and the minimum inhibitory concentration (MIC100) was determined.

[11] = system: Trichophyton rubrum (ATCCMYA4607); assay: as above; conditions: Sabouraud medium, 32° C. for 72 hours
Method: as §3, §4

[12] = system: Malassezia restricta (IFM55992); assay: Test Example 3-2 antifungal activity test, minimum fungicidal concentration after 1 minute; conditions: 1 minute contact, MLNA medium, 32° C. for 72 hours, read-out: Minimum fungicidal concentration (MFC100)
Method: Test Microbial Strain: Malassezia restricta (IFM55992) The Malassezia microbe (Malassezia restricta) cultured in a CHROMagar™ Malassezial Candida Prepared medium (peptone, special enzyme substrate mixture, chloramphenicol, olive oil, agar, manufactured by Kanto Chemical Co., Inc.) for 5 to 7 days was suspended in physiological saline, and a suspension thereof was prepared in such a way as to have an absorbance of 0.025 at 600 nm. Thereto, the test compound dissolved in DMSO was added in such a way as to provide a final concentration of 200, 100, 50, or 25 ppm, and after 1 minute, 10 μL of the suspension and 10 mL of physiological saline were placed in a syringe and stirred, and the syringe was connected to a 37 mm Quality Monitor (manufactured by Pall Corporation) followed by filtration and washing twice with 10 ml of physiological saline. The membrane filter was removed from the Quality Monitor, placed on a Leeming & Notman agar Modified medium (MLNA medium) (peptone, glucose, yeast extract, dried bovine bile, glycerol, glycerin stearate, Tween60, olive oil, agar), and subjected to culturing at 32° C. for 72 hours, the presence or absence of colony growth was investigated, and the minimum fungicidal concentration MFC100) was determined.

Q: How did the MIC [1] turn out when `Cc1ccc(-c2nc(C#N)[nH]c2Cl)cc1Cl` [Compound No. 6, 5-Chloro-4-(3-chloro-4-methylphenyl)-1H-imidazole-2-carbonitrile] was run?
A: 250 µg/mL (≈ 992 µM)

Q: What about the MIC [2] of the same compound?
A: 125 µg/mL (≈ 496 µM)

Q: What about the MIC [3] of the same compound?
A: 62.5 µg/mL (≈ 248 µM)

Q: What about the MIC [4] of the same compound?
A: 31.3 µg/mL (≈ 124 µM)

Q: And the MIC [5]?
A: 62.5 µg/mL (≈ 248 µM)

Q: And the MIC [6]?
A: 31.3 µg/mL (≈ 124 µM)

Q: What about the MIC [7] of the same compound?
A: 250 µg/mL (≈ 992 µM)

Q: What about the MIC [8] of the same compound?
A: 7.8 µg/mL (≈ 30.9 µM)

Q: What about the MIC [9] of the same compound?
A: 62.5 µg/mL (≈ 248 µM)

Q: What about the MIC [10] of the same compound?
A: 5 µg/mL (≈ 19.8 µM)

Q: What about the MIC [11] of the same compound?
A: 5 µg/mL (≈ 19.8 µM)

Q: And the MFC [12]?
A: 200 µg/mL (≈ 793 µM)
